Measurements as given in PMC7560154, “Novel Antimicrobial Peptide from Temporin L in The Treatment of Staphylococcus pseudintermedius and Malassezia pachydermatis in Polymicrobial Inter-Kingdom Infection” (Antibiotics, 2020).
Where a SMILES comes first, the peptide text is derived from it. [ ]: non-standard residue; d: D form.

Tests used:
MSSP biofilm formation = assay: Biofilm formation, crystal violet assay, MSSP; assay type: cell-based, Staphylococcus pseudintermedius; conditions: sub-MIC 0.095 to 0.78 μM, 24 h
Experimental: (§1) Anti-biofilm activity of peptide 8 was examined by the crystal violet assay previously described with minor modifications. Microtiter plates were inoculated with bacteria at a final density of 10^6 CFU/mL and treated with peptide 8 ranging from 0.095 to 0.78 μM. Control cells were grown in the absence of peptide 8. After 24 h incubation at 37 °C, the supernatant was gently removed, and the wells were rinsed twice with PBS. The amount of biofilm formed in the wells was measured by crystal violet staining and the absorbance of the solution was measured at 595 nm.

MRSP biofilm formation = assay: Biofilm formation, crystal violet assay, MRSP; assay type: cell-based, Staphylococcus pseudintermedius; conditions: sub-MIC 0.095 to 0.78 μM, 24 h
Experimental: as §1

[1] = test system: methicillin-susceptible S. pseudintermedius (MSSP); assay: Time-kill assay, MSSP; assay type: cell-based, Staphylococcus pseudintermedius
Experimental: (§2) Time kill assay was carried out as previously described. […] Plates were incubated at 37 °C on an orbital shaker at 120 rpm. Viability assessments were performed at 0, 2, 4, 6 and 24 h by plating 0.01 mL undiluted and 10-fold serially diluted samples onto Mueller–Hinton plates in triplicate. After overnight incubation at 37 °C, bacterial colonies were counted and compared with counts from control cultures.

MRSP [2] = assay: Time-kill assay, MRSP; assay type: cell-based, Staphylococcus pseudintermedius
Experimental: as §2

[3] = ref unpublished results, cited from earlier work
MRSP [4] = assay: Checkerboard synergy of peptide 8 and oxacillin; assay type: cell-based, Staphylococcus pseudintermedius; conditions: MRSP
Experimental: The interaction between peptide 8 and oxacillin against MRSP was evaluated by the checkerboard method. Briefly, twofold serial dilutions of oxacillin distributed in horizontal rows of 96-well microtiter plate were cross-diluted vertically by twofold serial dilutions of peptide 8 to at least double the MIC. The peptide 8 tested concentration ranging from 0.19 to 12.5 μM and oxacillin from 1.25 to 25 μM (0.5 to 10 μg/mL). Microtiter plates were inoculated with bacteria at an approximate concentration of 10^5 CFU/mL and incubated at 37 °C for 24 h. […] To evaluate the effect of the combination treatment, the fractional inhibitory concentration (FIC) index for each combination was calculated as follows: FIC index = FIC of peptide 8 + FIC of oxacillin, where FIC of peptide 8 (or oxacillin) was defined as the ratio of MIC of peptide 8 (or oxacillin) in combination and MIC of peptide 8 (or oxacillin) alone. The FIC index values were interpreted as follows: ≤0.5, synergistic; >0.5 to ≤1.0, additive; >1.0 to ≤2.0, indifferent; and >2.0, antagonistic effects.

MSSP mature biofilm = assay: Mature biofilm metabolic activity, XTT assay, MSSP; assay type: cell-based, Staphylococcus pseudintermedius; conditions: 24 h
Experimental: The metabolic activity of MSSP and MRSP mature biofilms was quantified by the XTT [2,3-bis(2-methyloxy-4-nitro-5-sulfophenyl)-2H-tetrazolium-5-carboxanilide] (Roche Diagnostics, Germany) reduction assay. The assay was conducted as previously described with some modifications. XTT (150 µL) was added to biofilms in each well and the plates were incubated for 40 min at 37 °C in the dark. The reduction of the tetrazolium salt by cellular dehydrogenase into orange formazan dye was photometrically measured at 490 nm. The medium was set as negative control. Viability values for each well were compared to controls.

mecA gene expression = mecA gene expression by RT-PCR; assay type: cell-based, Staphylococcus pseudintermedius
Experimental: The reaction was carried out in a DNA thermal cycler (MyCycler, Bio-Rad, Hercules, CA, USA). The PCR products were analysed by electrophoresis on 1.8% agarose gel in TBE and analysed on a Gel Doc EZ System (Bio-Rad, Hercules, CA, USA). RNA extraction was performed by using GenUp Total RNA kit (BiotechRabbit, Berlin, Germany) according to the manufacturer’s instructions. Five hundred nanograms of total cellular RNA were reverse-transcribed (RevertUP II Reverse Transcriptase, BiotechRabbit, Berlin, Germany) into cDNA using random hexamer primers (Random hexamer, Roche Diagnostics, Mannheim, Germany) at 48 °C for 60 min according to the manufacturer’s instructions. RT-PCR was carried out using 2 μL of cDNA, as reported above. Quantification data were normalized to the reference gene for 16S rRNA gene and analyzed by Image Lab software 5.2.1 (Bio-Rad, Hercules, CA, USA).

circulating blood cells = conditions: cited from earlier work

Structure (SMILES): CC[C@H](C)[C@H](NC(=O)[C@H](CCCNC(=N)N)NC(=O)[C@@H](CCCCN)NC(=O)[C@@H](CC(C)C)NC(=O)[C@H](Cc1ccccc1)NC(=O)[C@H](CCCCN)NC(=O)[C@H](CO)NC(=O)[C@H](Cc1ccccc1)NC(=O)[C@H](Cc1c[nH]c2ccccc12)NC(=O)[C@@H]1CCCN1C(=O)[C@@H](NC(=O)[C@@H](N)Cc1ccccc1)C(C)C)C(=O)N[C@@H](CC(C)C)C(N)=O [Peptide 8] (H-FVPWFSKF[dL][dK]RIL-NH2; N-terminus assumed)
- Effect on biofilm formation (MSSP biofilm formation): ineffective
- Effect on biofilm formation (MRSP biofilm formation): ineffective
- Log10CFU/mL 0 h ([1]; peptide at MIC value, 37 °C, 0 h, three independent experiments in triplicate): 5.45 ± 0.25 Log10CFU/mL
- Log10CFU/mL 1 h ([1]; peptide at MIC value, 1 h): 0.60 ± 0.12 Log10CFU/mL
- Log10CFU/mL 2 h ([1]; peptide at MIC value, 2 h): 0.58 ± 0.32 Log10CFU/mL
- Log10CFU/mL 4 h ([1]; peptide at MIC value, 4 h): 0.89 ± 0.15 Log10CFU/mL
- Log10CFU/mL 6 h ([1]; peptide at MIC value, 6 h): 0.46 ± 0.15 Log10CFU/mL
- Log10CFU/mL 24 h ([1]; peptide at MIC value, 24 h): 4.97 ± 0.30 Log10CFU/mL
- Bactericidal or bacteriostatic activity ([1]; time-kill at MIC value): bacteriostatic
- Log10CFU/mL 0 h (MRSP [2]; peptide at MIC value (6.25 μM), 37 °C, 0 h, three independent experiments in triplicate): 5.30 ± 0.18 Log10CFU/mL
- Log10CFU/mL 1 h (MRSP [2]; peptide at MIC value (6.25 μM), 1 h): 2.47 ± 0.18 Log10CFU/mL
- Log10CFU/mL 2 h (MRSP [2]; peptide at MIC value (6.25 μM), 2 h): 2.38 ± 0.19 Log10CFU/mL
- Log10CFU/mL 4 h (MRSP [2]; peptide at MIC value (6.25 μM), 4 h): 1.30 ± 0.21 Log10CFU/mL
- Log10CFU/mL 6 h (MRSP [2]; peptide at MIC value (6.25 μM), 6 h): 0.77 ± 0.12 Log10CFU/mL
- Log10CFU/mL 24 h (MRSP [2]; peptide at MIC value (6.25 μM), 24 h): 4.86 ± 0.28 Log10CFU/mL
- Bactericidal or bacteriostatic activity (MRSP [2]; time-kill at MIC value): bacteriostatic
- Aggregation state and conformation in aqueous solution ([3]; aqueous solution): monomeric with a random coil conformation
- Aggregation in membrane mimetic environments ([3]; membrane mimetic environments): significant ability to aggregate
- FICindex (MRSP [4]; peptide 8 + oxacillin, checkerboard, 37 °C 24 h, ≤0.5 synergistic): 0.37
- Concentration of peptide 8 in the most synergistic combination (MRSP [4]; with 3.1 μM oxacillin, 1/4 MIC): 1.56 µM
- Reduction of biofilm viability (MSSP mature biofilm; 12.5 μM): 38%
- Effect on biofilm viability at 25 μM (MSSP mature biofilm; 25 μM): reduced effect
- Regulation of mecA gene expression (mecA gene expression): did not regulate mecA gene expression
- Hemolytic activity (circulating blood cells): did not show hemolytic activity
